Earlier results in paper PMC11125331, “Pharmaceutical Compounding in Veterinary Medicine: Suspension of Itraconazole” (Pharmaceutics, 2024).
Read-outs that look alike come from different tables or passages of the source.

Assays:
[1] = design: method as in PMID 28627123
dogs [2] = system: dogs; design: method as in earlier work
cats = system: cats; design: method as in PMID 35245984, PMID 34109637; conditions: punctual administrations
dogs [3] = system: dogs; design: method as in PMID 35245984, PMID 34109637; conditions: orally at 10 mg/kg

CCC(C)n1ncn(-c2ccc(N3CCN(c4ccc(OCC5COC(Cn6cncn6)(c6ccc(Cl)cc6Cl)O5)cc4)CC3)cc2)c1=O (centres unmarked) [Itraconazole]
Biopharmaceutical Classification System class: class II
log P (n-octanol/water) (at pH 8.1): 5.66
Solubility (in 0.1 M chlorhydric acid (HCl)): 4 to 6 µg/mL
Solubility (in water): 0.001 to 0.004 µg/mL
Concentration in skin and hair relative to plasma levels [1]: ten times higher than plasma levels

OC[C@@H](O)[C@H](O)[C@@H](O)CO [xylitol]
Adverse effects (dogs [2]): can cause severe hypoglycemia

polysorbate 80
Safety (cats): safe
Adverse effects (dogs [3]): produces cardiovascular changes and hypersensitivity effects
